Data taken from ChEMBL document CHEMBL3045434, “Synthesis, characterization, and biological evaluation of novel thiazole and pyrazole derivatives of quinoline-4-carboxylic acid as potential antimicrobial agents” (2013).
Converted amounts (≈) assume the structure as drawn.

Legend:
Assay type in all cases: functional
[1] = tested on: Bacillus subtilis; test: Antibacterial activity against Bacillus subtilis ATCC 6633 by disk diffusion method
[2] = tested on: Aspergillus fumigatus; test: Antifungal activity against Aspergillus fumigatus MTCC 343 by disk diffusion method
[3] = tested on: Escherichia coli; test: Antibacterial activity against Escherichia coli MTCC 739 by disc diffusion method
[4] = tested on: Staphylococcus aureus; test: Antibacterial activity against Staphylococcus aureus ATCC 9144 by two-fold serial dilution method
[5] = tested on: Aspergillus fumigatus; test: Antifungal activity against Aspergillus fumigatus MTCC 343 by two-fold serial dilution method
[6] = tested on: Pseudomonas aeruginosa; test: Antibacterial activity against Pseudomonas aeruginosa ATCC 25615 by two-fold serial dilution method
[7] = tested on: Aspergillus niger; test: Antifungal activity against Aspergillus niger MTCC 872 by two-fold serial dilution method
[8] = tested on: Pseudomonas aeruginosa; test: Antibacterial activity against Pseudomonas aeruginosa ATCC 25615 by disc diffusion method
[9] = tested on: Escherichia coli; test: Antibacterial activity against Escherichia coli MTCC 739 by two-fold serial dilution method
[10] = tested on: Candida albicans; test: Antifungal activity against Candida albicans ATCC 24433 by disk diffusion method
[11] = tested on: Bacillus subtilis; test: Antibacterial activity against Bacillus subtilis ATCC 6633 by two-fold serial dilution method
[12] = tested on: Aspergillus niger; test: Antifungal activity against Aspergillus niger MTCC 872 by disc diffusion method
[13] = tested on: Candida albicans; test: Antifungal activity against Candida albicans ATCC 24433 by two-fold serial dilution method
[14] = tested on: Staphylococcus aureus; test: Antibacterial activity against Staphylococcus aureus ATCC 9144 by disk diffusion method

Molecule	diameter of the inhibition zone (DIZ) [1] [mm]	diameter of the inhibition zone (DIZ) [2] [mm]	diameter of the inhibition zone (DIZ) [3] [mm]	MIC [4] [µg/mL]	MIC [5] [µg/mL]	MIC [6] [µg/mL]	MIC [7] [µg/mL]	diameter of the inhibition zone (DIZ) [8] [mm]	MIC [9] [µg/mL]	diameter of the inhibition zone (DIZ) [10] [mm]	MIC [11] [µg/mL]	diameter of the inhibition zone (DIZ) [12] [mm]	MIC [13] [µg/mL]	diameter of the inhibition zone (DIZ) [14] [mm]	inhibition zone (IZ) [1] [mm]	inhibition zone (IZ) [3] [mm]	inhibition zone (IZ) [8] [mm]	inhibition zone (IZ) [12] [mm]	inhibition zone (IZ) [14] [mm]
Cc1ccc(-c2cc(C(=O)O)c3ccccc3[n+]2C/C(=N/N=C2/N=C(c3ccc(N)cc3)CS2)c2ccccc2)cc1.[I-]	6	10	6	3.12	> 50	> 100	> 100	6	> 100	40	> 100	8	3.12	40	–	–	–	–	–
O=c1[nH]nc2c3c(c(-c4ccccc4)nc4ccccc43)c(-c3ccccc3)c(-c3ccccc3)n12	8	12	21	> 100	25 (≈ 53.8 µM)	50 (≈ 108 µM)	> 100	12	25 (≈ 53.8 µM)	6	> 100	6	> 100	8	–	–	–	–	–
Cc1ccc(-c2nc3ccccc3c3c2c(-c2ccccc2)c(-c2ccccc2)n2c(=S)[nH]nc32)cc1	19	6	6	> 100	> 100	> 100	> 100	6	> 100	6	25 (≈ 50.5 µM)	7	> 100	6	–	–	–	–	–
S=c1[nH]nc2c3c(c(-c4ccccc4)nc4ccccc43)c(-c3ccccc3)c(-c3ccccc3)n12	21	7	18	> 100	> 100	> 100	> 100	8	50 (≈ 104 µM)	8	12.5 (≈ 26 µM)	6	> 100	8	–	–	–	–	–
O=C(O)c1cc(-c2ccccc2)[n+](C/C(=N/N=C2/N=C(c3ccccc3)CS2)c2ccccc2)c2ccccc12.[I-]	10	12	9	25	25	> 100	12.5	9	> 100	10	> 100	14	> 50	18	–	–	–	–	–
GENTAMICIN	–	–	–	6.25	–	–	–	–	25	–	–	–	–	–	22	20	23	18	22
O=c1[nH]nc2c3c(c(-c4ccc(Cl)cc4)nc4ccccc43)c(-c3ccccc3)c(-c3ccccc3)n12	11	6	6	> 100	> 100	> 100	> 100	6	> 100	24	> 100	8	12.5 (≈ 25.1 µM)	9	–	–	–	–	–
Cc1ccc(-c2cc(C(=O)O)c3ccccc3[n+]2C/C(=N/N=C2/N=C(c3ccccc3)CS2)c2ccccc2)cc1.[I-]	9	8	11	25	> 100	> 100	> 100	8	> 100	17	> 100	7	25	14	–	–	–	–	–
O=C(O)c1cc(-c2ccc(Cl)cc2)[n+](C/C(=N/N=C2/N=C(c3ccccc3)CS2)c2ccccc2)c2ccccc12.[I-]	6	6	6	25	> 100	> 100	> 100	6	> 100	19	> 100	6	12.5	15	–	–	–	–	–
Nc1ccc(C2=N/C(=N/N=C(/C[n+]3c(-c4ccccc4)cc(C(=O)O)c4ccccc43)c3ccccc3)SC2)cc1.[I-]	9	6	8	6.25	> 100	> 100	> 100	9	> 100	36	> 100	7	3.12	24	–	–	–	–	–
S=c1[nH]nc2c3c(c(-c4ccc(Cl)cc4)nc4ccccc43)c(-c3ccccc3)c(-c3ccccc3)n12	8	6	7	12.5 (≈ 24.3 µM)	> 100	50 (≈ 97.1 µM)	> 100	13	> 100	18	> 100	6	25 (≈ 48.5 µM)	20	–	–	–	–	–
Cc1ccc(-c2nc3ccccc3c3c2c(-c2ccccc2)c(-c2ccccc2)n2c(=O)[nH]nc32)cc1	18	9	6	50 (≈ 104 µM)	> 100	> 100	> 100	9	> 100	14	50 (≈ 104 µM)	6	50 (≈ 104 µM)	11	–	–	–	–	–
OC(Cn1cncn1)(Cn1cncn1)c1ccc(F)cc1F [FLUCONAZOLE]	–	–	–	–	–	–	–	–	–	21	–	–	6.25 (≈ 20.4 µM)	–	–	–	–	–	–
Nc1ccc(C2=N/C(=N/N=C(/C[n+]3c(-c4ccc(Cl)cc4)cc(C(=O)O)c4ccccc43)c3ccccc3)SC2)cc1.[I-]	7	9	7	3.12	> 100	> 100	> 100	8	> 100	7	> 100	6	> 100	34	–	–	–	–	–
